What was measured:
vascular calcification = experiment: Adenine and high-phosphate-diet-induced rat model of VC; assay type: in vivo, male Wistar rats
Procedure: Uremia increases the risk for developing VC. Therefore, the effect of (OEG2)2-IP4 on the development of VC was investigated in a previously established adenine and high-phosphate-diet-induced rat model of VC that results in uremia and chronic renal failure. […] (OEG2)2-IP4 was administered via a s.c.-implanted osmotic pump at doses of 5, 15, or 50 mg/kg/day for 4 weeks, and treatment was initiated 1 week after the start of adenine supplementation. […] Animals in this model developed severe CKD (Supplementary Fig. 20), which was accompanied by substantial weight loss (Supplementary Fig. 21). No significant difference in the level of renal failure and body weight loss was observed between the different treatment groups, with the exception of creatinine at week 3 and serum phosphate at sacrifice in the 15 mg/kg/day group (Supplementary Fig. 20).
The inhibitory effect of (OEG2)2-IP4 on heart calcifications was significant starting at 15 mg/kg/day (Fig. 6b). The compound’s activity was also evident following von Kossa staining (Fig. 6c) on the thoracic part of the aorta, and quantification of the von Kossa-positive area (Fig. 6d). […] In the femoral artery, reduction in bulk calcium was insignificant for all tested groups, likely due to the low level of calcification detected in the vehicle control (Fig. 6f, Supplementary Table 9).
Male Wistar rats (Charles River) were housed two per cage with free access to water and standard chow and submitted to a 12-h light/dark cycle. Compounds were administered and doses calculated using the salt form. Animals were randomly assigned to four groups of 12 animals each and given a high-phosphate (1.03%) diet for 2 weeks before starting a special diet to initiate uremia. Uremia/VC was induced in all animals by freely fed diet containing high-phosphate (0.92%), low-protein (2.5% instead of 19%), and adenine (0.75%) for 4 weeks. The diet was again switched to a high-phosphate (1.03%) diet for 1 week, after which rats were sacrificed.
The first group was treated with vehicle (double distilled (d.d.) water), the second, third, and fourth groups were treated with daily doses equivalent of 5, 15, and 50 mg/kg of (OEG2)2-IP4, respectively, in 2 mL d.d. water starting 1 week after the administration of the adenine diet. Compounds were delivered continuously for 4 weeks via osmotic pumps (type 2ML4; Alzet, Cupertino, CA, USA) implanted subcutaneously under anesthesia 1 week after the start of the adenine diet. Blood sampling for serum and plasma at baseline, week 1, and week 3 was performed in restrained, conscious animals. […] Serum samples were analyzed for creatinine according to the Jaffe method, calcium (using flame atomic absorption spectrometry[74]), and phosphate (DiaSys Diagnostic Systems, Holzheim, Germany) concentrations. In serum samples taken at sacrifice, the CPP-associated calcium was quantified by calculating the difference between total serum calcium (measured in serum supernatants after centrifugation at 3000 × g, RT, 15 min) and serum calcium after removing CPPs by centrifugation (16,000 × g and 4 °C for 120 min)[26]. In addition, serum aliquots were centrifuged (10,000 × g, 4 °C, 30 min) and T50’s were determined as described above. CPP size was monitored by hourly DLS measurements at 37 °C, after spiking cleared serum samples with calcium (10 mM) and phosphate (6 mM), for a total of 8 h[29].
At sacrifice, the heart, the abdominal aorta, left carotids, and femoral arteries were collected. The presence of calcification in each animal was evaluated on paraffin-embedded, von Kossa stained sections of the thoracic aorta (as described previously[74]), as well as by measurement of the total calcium content in the heart and vascular tissue samples by flame atomic absorption spectrometry.

Nicotinic Acetylcholine = experiment: Off-target 258590; assay type: binding, Human; settings: 10 µM
Procedure: (§1) The potential off-target activity of 10 µM (OEG2)2-IP4 was assessed against a panel of 87 enzymes, receptors, or ion channels that are used in standard safety pharmacology screens.
(§2) 3.2. Off-target screening assay
The experiments were conducted by a contract research organization (Eurofins Panlabs Discovery Services Taiwan, Ltd.) and details on the respective assays can be retrieved via the catalog number provided in Supplementary Table 11 from the company’s webpage
(§3) (https://www.eurofinsdiscoveryservices.com/). […]
At sacrifice the left tibia of animals of the rat model with dietary adenine/high-phosphate-induced uremia and VC was collected, fixed with 70% v/v EtOH and embedded in methyl methacrylate. The trabecular bone compartment is known to be the most metabolic active i.e. actively re-structured bone compartment in CKD. Therefore, histomorphometric and micro-computed tomography (µCT) analysis of bone was performed on the trabecular compartment. Tibial sections were Goldner-stained for histomorphometric analysis of the proximal metaphysis using the AxioVision Release 4.5 software, as […]
described previously5. […]

[1] = tested on: GABAA, Chloride Channel, TBOB; experiment: Off-target 226810; assay type: binding, Rat; settings: 10 µM
Procedure: as §1, §2
The experiments were conducted by a contract research organization (Eurofins Panlabs Discovery
Services Taiwan, Ltd.) and details on the respective assays can be retrieved via the catalog number
provided in Supplementary Table 11 from the company’s webpage
as §3

In the case of `COCCOCCO[C@@H]1[C@@H](OP(=O)(O)O)[C@H](OCCOCCOC)[C@@H](OP(=O)(O)O)[C@@H](OP(=O)(O)O)[C@H]1OP(=O)(O)O` [(OEG2)2-IP4, 4,6-Di-O-(methoxy-diethyleneglycol)-myo-inositol-1,2,3,5-tetrakis(phosphate)], the “Calcium, A. abdominialis” value (vascular calcification; 5 mg/kg/day) is reported as 12.71 ± 11.66 mg/g tissue, the “Calcium, A. carotis” value (vascular calcification; 5 mg/kg/day) is reported as 11.06 ± 9.10 mg/g tissue and the “Calcium, A. femoralis” value (vascular calcification; 5 mg/kg/day) is reported as 4.47 ± 3.95 mg/g tissue. The “Calcium, Heart” value (vascular calcification; 5 mg/kg/day) was 0.05 ± 0.03 mg/g tissue, the “Von Kossa positive area in the aorta thoracalis” value (“Von Kossa positive area” for short) (vascular calcification; 5 mg/kg/day) was 17.86 ± 12.46% and the “Mortality (animals)” value (vascular calcification; 5 mg/kg/day, s.c. osmotic pump, 4 weeks) was 0/12. For the same compound, the “Calcium, A. abdominialis” value (vascular calcification; 15 mg/kg/day) was 6.24 ± 3.70 mg/g tissue, the “Calcium, A. carotis” value (vascular calcification; 15 mg/kg/day) was 5.07 ± 6.23 mg/g tissue and the “Calcium, A. femoralis” value (vascular calcification; 15 mg/kg/day) was 4.14 ± 1.92 mg/g tissue. For the same compound, the “Calcium, Heart” value (vascular calcification; 15 mg/kg/day) was 0.04 ± 0.01 mg/g tissue, the “Mortality (animals)” value (vascular calcification; 15 mg/kg/day) was 1/12 and the “Von Kossa positive area” value (vascular calcification; 15 mg/kg/day) was 14.35 ± 11.49%. For the same compound, the “Calcium, A. abdominialis” value (vascular calcification; 50 mg/kg/day) was 1.69 ± 1.80 mg/g tissue, the “Calcium, A. carotis” value (vascular calcification; 50 mg/kg/day) was 0.84 ± 1.11 mg/g tissue and the “Calcium, A. femoralis” value (vascular calcification; 50 mg/kg/day) was 2.01 ± 1.41 mg/g tissue. For the same compound, the “Calcium, Heart” value (vascular calcification; 50 mg/kg/day) was 0.04 ± 0.02 mg/g tissue, the “Mortality (animals)” value (vascular calcification; 50 mg/kg/day) was 1/12 and the “Von Kossa positive area” value (vascular calcification; 50 mg/kg/day) was 2.72 ± 5.97%. For the same compound, the “calcification in the carotid artery compared to the 5 and 15 mg/kg/day groups” value (vascular calcification; 50 mg/kg/day) was “prevented calcification in the carotid artery”, the “calcemic status of the animals” value (vascular calcification; 50 mg/kg/day for 4 weeks) was “not influenced” and the “bulk calcium in the abdominal aorta compared to vehicle” value (vascular calcification; 5, 15, 50 mg/kg/day) was “trend in a dose-dependent reduction of bulk calcium”. The “reduction in bulk calcium in the femoral artery” value (vascular calcification; all tested groups) was “insignificant”, the “dose from which inhibitory effect on heart calcifications was significant” value (vascular calcification; rat, in vivo) was no less than 15 mg/kg/day and the “% Inhibition” value (Nicotinic Acetylcholine) was -5%. For the same compound, the “% Inhibition” value [1] was -19%.
